Assay results taken from patent US8367873B2, “Phenyl-substituted bicyclooctane-1,3-dione derivatives” (Bayer Cropscience AG, priority 2008, dated 2013).

Tests used:
Type in all cases: in vivo
[1] = tested on: monocotylidonous and dicotylidonous weed and crop plants; experiment: Herbicidal post-emergence action (other test plants); conditions: post-emergence method; for herbicidal effect against AVEFA (Avena fatua): 80 g/ha
Method in brief: (§1)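 Percent herbicidal effect (0% like control, 100% plants dead) was rated by eye roughly three weeks post-treatment. Treatment was a post-emergence spray of wettable-powder formulations at different doses, 600 l/ha water with 0.2% wetter, onto one-leaf-stage weeds and crops grown in greenhouse pots.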

[2] = tested on: Setaria viridis; experiment: Herbicidal pre-emergence action; conditions: pre-emergence method, 80 g/ha, greenhouse, visual assessment vs untreated controls
Method in brief: (§2)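 Test compounds, as wettable powder suspensions with 0.2% wetting agent at a water rate of 600 l/ha, were applied in different amounts to the covering soil over freshly sown seeds in sandy loam. Emergence damage was rated visually in percent against untreated plants after three weeks under greenhouse conditions.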

[3] = tested on: Lolium multiflorum; experiment: Herbicidal pre-emergence action; conditions: pre-emergence method, 80 g/ha, greenhouse, visual assessment vs untreated controls
Method in brief: as §2

[4] = tested on: Alopecurus myosuroides; experiment: Herbicidal pre-emergence action; conditions: pre-emergence method, 80 g/ha, greenhouse, visual assessment vs untreated controls
Method in brief: as §2

[5] = tested on: Echinocloa crus-galli; experiment: Herbicidal pre-emergence action; conditions: pre-emergence method, 80 g/ha, greenhouse, visual assessment vs untreated controls
Method in brief: as §2

[6] = tested on: monocotylidonous and dicotylidonous weed and crop plants; experiment: Herbicidal pre-emergence action (other test plants); conditions: pre-emergence method, 80 g/ha, greenhouse, visual assessment vs untreated controls
Method in brief: as §2

[7] = tested on: Setaria viridis; experiment: Herbicidal post-emergence action; conditions: post-emergence method; for herbicidal effect against SETVI (Setaria viridis): 80 g/ha
Method in brief: as §1

[8] = tested on: Lolium multiflorum; experiment: Herbicidal post-emergence action; conditions: post-emergence method; for herbicidal effect against LOLMU (Lolium multiflorum): 80 g/ha
Method in brief: as §1

[9] = tested on: Alopecurus myosuroides; experiment: Herbicidal post-emergence action; conditions: post-emergence method; for herbicidal effect against ALOMY (Alopecurus myosuroides): 80 g/ha
Method in brief: as §1

[10] = tested on: Echinocloa crus-galli; experiment: Herbicidal post-emergence action; conditions: post-emergence method; for herbicidal effect against ECHCG (Echinochloa crus-galli): 80 g/ha
Method in brief: as §1

Row | SMILES | herbicidal effect against AVEFA (Avena fatua) [1] | herbicidal effect SETVI [2] | herbicidal effect LOLMU [3] | herbicidal effect ALOMY [4] | herbicidal effect ECHCG [5] | herbicidal effect AVEFA [6] | herbicidal effect against SETVI (Setaria viridis) [7] | herbicidal effect against LOLMU (Lolium multiflorum) [8] | herbicidal effect against ALOMY (Alopecurus myosuroides) [9] | herbicidal effect against ECHCG (Echinochloa crus-galli) [10] | pest or weed control at 80 g/ha ([1]; 504 h, Avena fatua, read-out: herbicidal effect against AVEFA (Avena fatua)) | pest or weed control at 80 g/ha ([7]; Setaria viridis, 504 h, read-out: herbicidal effect against SETVI (Setaria viridis)) | pest or weed control at 80 g/ha ([8]; Lolium multiflorum, 504 h, read-out: herbicidal effect against LOLMU (Lolium multiflorum)) | pest or weed control at 80 g/ha ([9]; Alopecurus myosuroides, 504 h, read-out: herbicidal effect against ALOMY (Alopecurus myosuroides)) | pest or weed control at 80 g/ha ([10]; Echinochloa crus-galli, 504 h, read-out: herbicidal effect against ECHCG (Echinochloa crus-galli))
1 | CCc1cc(C)cc(C)c1C1=C(OC(=O)C(C)C)C2CC3(CC2C1=O)OCC=CCO3 (centres unmarked) [I-b-76] | 90% | 70% | 100% | 100% | 100% | 60% | 100% | 100% | 90% | 100% | – | – | – | – | –
2 | CCc1cc(C)cc(C)c1C1=C(OC(=O)C(C)(C)C)C2CC3(CC2C1=O)OCCCCO3 (centres unmarked) [I-b-78] | 70% | 60% | 100% | 100% | 100% | 60% | 70% | 100% | 100% | 100% | – | – | – | – | –
3 | CCc1cc(C)cc(C)c1C1=C(OC(=O)C(C)C)C2CC3(CC2C1=O)OCCO3 (centres unmarked) [I-b-79] | 100% | 80% | 100% | 70% | 100% | 70% | 100% | 100% | 90% | 100% | – | – | – | – | –
4 | CCc1cc(C)cc(CC)c1C1=C(OC(=O)OC(C)C)C2CC3(COC(C)(C)O3)CC2C1=O (centres unmarked) [I-c-2] | 40% | 60% | 100% | 90% | 40% | 50% | 40% | 100% | 90% | 40% | – | – | – | – | –
5 | C=C1CC2C(=O)C(c3c(CC)cc(C)cc3CC)=C(OC(=O)OCC)C2C1 (centres unmarked) [I-c-5, 2-(2,6-diethyl-4-methylphenyl)-5-methylidene-3-oxo-3,3a,4,5,6,6a-hexahydropentalen-1-yl ethyl carbonate] | – | 80% | 80% | 80% | 90% | 80% | – | – | – | – | 30% | 90% | 90% | 20% | 100%
6 | CCOC(=O)OC1=C(c2c(CC)cc(C)cc2CC)C(=O)C2CC3(CC12)OC(C)CC(C)O3 (centres unmarked) [I-c-13] | 80% | 60% | 80% | 90% | 60% | 50% | 90% | 100% | 70% | 100% | – | – | – | – | –
7 | CCOC(=O)OC1=C(c2c(CC)cc(C)cc2CC)C(=O)C2CC3(CC12)OC(C)(C)C(C)(C)O3 (centres unmarked) [I-c-18] | 0% | 10% | 100% | 90% | 100% | 0% | 0% | 90% | 60% | 80% | – | – | – | – | –
8 | CCc1cc(C)cc(CC)c1C1=C(OC(=O)OC)C2CC3(CC2C1=O)OCC=CCO3 (centres unmarked) [I-c-21] | 100% | 100% | 100% | 90% | 100% | 70% | 100% | 100% | 90% | 100% | – | – | – | – | –
9 | CCOC(=O)OC1=C(c2c(CC)cc(C)cc2CC)C(=O)C2CC3(CC12)OCC(C)(C)CO3 (centres unmarked) [I-c-22] | 100% | 100% | 100% | 100% | 100% | 70% | 100% | 100% | 100% | 100% | – | – | – | – | –
10 | CCc1cc(C)cc(CC)c1C1=C(OC(=O)OC)C2CC3(CC2C1=O)OCC(C)(C)CO3 (centres unmarked) [I-c-23] | 100% | 100% | 100% | 100% | 100% | 70% | 100% | 100% | 100% | 100% | – | – | – | – | –
11 | CCOC(=O)OC1=C(c2c(CC)cc(C)cc2CC)C(=O)C2CC3(CC12)OCC(OC)CO3 (centres unmarked) [I-c-25] | 100% | 80% | 100% | 100% | 100% | 90% | 100% | 100% | 100% | 100% | – | – | – | – | –
12 | CCOC(=O)OC1=C(c2c(CC)cc(C)cc2CC)C(=O)C2CC3(CC12)OCC(OCC)CO3 (centres unmarked) [I-c-26] | 100% | 100% | 100% | 100% | 100% | 80% | 100% | 100% | 100% | 100% | – | – | – | – | –
13 | CCOC1COC2(CC3C(=O)C(c4c(CC)cc(C)cc4CC)=C(OC(=O)OC)C3C2)OC1 (centres unmarked) [I-c-27] | 100% | 90% | 100% | 100% | 100% | 80% | 100% | 100% | 100% | 100% | – | – | – | – | –
14 | CCc1cc(C)cc(CC)c1C1=C(OC(=O)OC(C)C)C2CC3(CC2C1=O)OCCCO3 (centres unmarked) [I-c-34] | 100% | 80% | 100% | 90% | 100% | 60% | 90% | 100% | 100% | 100% | – | – | – | – | –
15 | CCOC(=O)OC1=C(c2c(CC)cc(C)cc2CC)C(=O)C2CC(=NOCC3CC3)CC12 (centres unmarked) [I-c-40] | 0% | 40% | 80% | 80% | 0% | 60% | 100% | 100% | 100% | 100% | – | – | – | – | –
16 | C#CCON=C1CC2C(=O)C(c3c(CC)cc(C)cc3CC)=C(OC(=O)OCC)C2C1 (centres unmarked) [I-c-41] | 80% | 40% | 100% | 90% | 60% | 40% | 20% | 100% | 100% | 100% | – | – | – | – | –
17 | C#CC(C)ON=C1CC2C(=O)C(c3c(CC)cc(C)cc3CC)=C(OC(=O)OCC)C2C1 (centres unmarked) [I-c-43] | 0% | 0% | 80% | 80% | 80% | 40% | 0% | 100% | 100% | 100% | – | – | – | – | –
